Assay results from patent US20240300932A1, “N-PHENYLIMINE DERIVATIVE AND PREPARATION METHOD AND USE THEREOF” (Guizhou University, priority 2023, published 2024).

What was measured:
Assay in all cases: Post-emergence herbicidal activity test (stem and leaf spray, pot culture)
Type in all cases: in vivo
Settings in all cases: 3 weeks after spraying
Abutilon theophrasti = test system: Abutilon theophrasti
Method in brief: (§1)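 Seeds soaked 6 h at 25 °C, germinated at 28 °C, sown in loam pots and thinned to 10 plants/pot. At 2–3 leaves, plants received a single spray-tower application of 10, 5 or 2.5 g/mu. Fresh-weight control was graded 0–5 after 3 weeks.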

Portulaca oleracea = test system: Portulaca oleracea
Method in brief: as §1

Echinochloa crusgalli = test system: Echinochloa crusgalli
Method in brief: as §1

Setaria viridis = test system: Setaria viridis
Method in brief: as §1

Amaranthus retroflexus = test system: Amaranthus retroflexus
Method in brief: as §1

Trifoliumre pensL. = test system: Trifoliumre pensL.
Method in brief: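 Rates of 10, 5 and 2.5 g/mu were applied in a single spray-tower treatment to 2–3-leaf plants, thinned to 10 per pot. Formulation: acetone solution, Tween 80, 1.5 L/ha methyl oleate synergist. Weed response assessed after 3 further greenhouse weeks; mean of three experiments.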

O=C1C2=C(CCCC2)C(=O)N1c1cc(OCc2nnc(-c3ccccc3[N+](=O)[O-])o2)c(Cl)cc1F [Compound B8]
Post-emergence herbicidal activity, A. theophrasti (grade) (Abutilon theophrasti; dosage 2.5 g/mu): 5 (Grade 5: the growth control rate is greater than or equal to 85%)
Post-emergence herbicidal activity, A. theophrasti (grade) (Abutilon theophrasti; dosage 5 g/mu): 5 (Grade 5: the growth control rate is greater than or equal to 85%)
Post-emergence herbicidal activity, A. theophrasti (grade) (Abutilon theophrasti; dosage 10 g/mu): 5 (Grade 5: the growth control rate is greater than or equal to 85%)
Post-emergence herbicidal activity, P. oleracea (grade) (Portulaca oleracea; dosage 2.5 g/mu): 5 (Grade 5: the growth control rate is greater than or equal to 85%)
Post-emergence herbicidal activity, P. oleracea (grade) (Portulaca oleracea; dosage 5 g/mu): 5 (Grade 5: the growth control rate is greater than or equal to 85%)
Post-emergence herbicidal activity, P. oleracea (grade) (Portulaca oleracea; dosage 10 g/mu): 5 (Grade 5: the growth control rate is greater than or equal to 85%)
Post-emergence herbicidal activity, E. crusgalli (grade) (Echinochloa crusgalli; dosage 2.5 g/mu): 1 (Grade 1: the growth control rate is greater than or equal to 5% and less than 20%)
Post-emergence herbicidal activity, E. crusgalli (grade) (Echinochloa crusgalli; dosage 5 g/mu): 2 (Grade 2: the growth control rate is greater than or equal to 20% and less than 40%)
Post-emergence herbicidal activity, E. crusgalli (grade) (Echinochloa crusgalli; dosage 10 g/mu): 3 (Grade 3: the growth control rate is greater than or equal to 40% and less than 60%)
Post-emergence herbicidal activity, S. viridis (grade) (Setaria viridis; dosage 2.5 g/mu): 2 (Grade 2: the growth control rate is greater than or equal to 20% and less than 40%)
Post-emergence herbicidal activity, S. viridis (grade) (Setaria viridis; dosage 5 g/mu): 3 (Grade 3: the growth control rate is greater than or equal to 40% and less than 60%)
Post-emergence herbicidal activity, S. viridis (grade) (Setaria viridis; dosage 10 g/mu): 4 (Grade 4: the growth control rate is greater than or equal to 60% and less than 85%)
Post-emergence herbicidal activity, A. retroflexus (grade) (Amaranthus retroflexus; dosage 2.5 g/mu): 5 (Grade 5: the growth control rate is greater than or equal to 85%)
Post-emergence herbicidal activity, A. retroflexus (grade) (Amaranthus retroflexus; dosage 5 g/mu): 5 (Grade 5: the growth control rate is greater than or equal to 85%)
Post-emergence herbicidal activity, A. retroflexus (grade) (Amaranthus retroflexus; dosage 10 g/mu): 5 (Grade 5: the growth control rate is greater than or equal to 85%)
Post-emergence herbicidal activity, Trifoliumre pensL. (grade) (Trifoliumre pensL.; dosage 2.5 g/mu): 5 (Grade 5: the growth control rate is greater than or equal to 85%)
Post-emergence herbicidal activity, Trifoliumre pensL. (grade) (Trifoliumre pensL.; dosage 5 g/mu): 5 (Grade 5: the growth control rate is greater than or equal to 85%)
Post-emergence herbicidal activity, Trifoliumre pensL. (grade) (Trifoliumre pensL.; dosage 10 g/mu): 5 (Grade 5: the growth control rate is greater than or equal to 85%)
